Laboratory results taken from patent US20220295791A1, “METHODS FOR VIRAL INACTIVATION BY ENVIRONMENTALLY COMPATIBLE DETERGENTS” (Eli Lilly and Company, priority 2019, published 2022).

What was measured:
[1] = tested on: enveloped viral inactivation; details: under a diverse set of experimental conditions; cited from earlier work
[2] = tested on: XMuLV; assay type: cell-based, Xenotropic Murine Leukemiavirus

| Compound | enveloped viral inactivation [1] | XMuLV inactivation [2] |
| --- | --- | --- |
| Triton X-100 | greater than 4 logs |  |
| CC(O)CO (centres unmarked) [monopropylene glycol] |  | not inactivate XMuLV |
